Assay results from BindingDB's records for doi:10.7270/Q2HQ3XCR (Nmmlsc, 2009).

Target: T1, Bcl-2-related protein A1 (Homo sapiens, UniProt Q16548)
T1 sequence (Q16548 whole entry): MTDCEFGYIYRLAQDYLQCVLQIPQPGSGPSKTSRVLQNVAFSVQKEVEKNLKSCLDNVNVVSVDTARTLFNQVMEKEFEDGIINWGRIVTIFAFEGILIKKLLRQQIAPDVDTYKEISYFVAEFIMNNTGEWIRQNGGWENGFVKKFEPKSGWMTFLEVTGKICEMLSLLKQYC
Test: inhibitors of Bim binding to Bfl-1, confirmation, biochemical, multiplexed, bead-based flow cytometry, HTS hits (AID 2080)

[1] = inactive by the depositor's call

SMILES | EC50 | EC50 [1]
Cc1nnc(Sc2cc(NCCO)c([N+](=O)[O-])c3nonc23)s1 [2-[[7-[(5-methyl-1,3,4-thiadiazol-2-yl)thio]-4-nitro-2,1,3-benzoxadiazol-5-yl]amino]ethanol] | 0.82 µM | 
O=C(NCc1ccccc1)c1ccc2nc(-c3ccco3)c(-c3ccco3)nc2c1 [2,3-bis(furan-2-yl)-N-(phenylmethyl)quinoxaline-6-carboxamide] | 8.1 µM | 
Cc1ccc(-c2cc(-c3ccc(C)o3)nc(N)c2C#N)cc1 [2-amino-6-(5-methylfuran-2-yl)-4-(4-methylphenyl)pyridine-3-carbonitrile] | 5.44 µM | 
CC(=O)OCCCNc1cc(Sc2nc3ccccc3s2)c2nonc2c1[N+](=O)[O-] [MLS000521052] | 0.17 µM | 
O=C(Nc1nnc(COc2ccc(Cl)cc2)s1)c1ccco1 [N-[5-[(4-chloranylphenoxy)methyl]-1,3,4-thiadiazol-2-yl]furan-2-carboxamide] | 3.09 µM | 
Oc1ccc(NCc2ccccc2OCc2ccccc2)cc1 [SMR000231540] | 8.06 µM | 
COc1ccc(N2C(=O)C(Cl)=C(Oc3cccc(OC)c3)C2=O)cc1 [3-chloro-4-(3-methoxyphenoxy)-1-(4-methoxyphenyl)-1H-pyrrole-2,5-dione] | 1.06 µM | 
S=c1[nH]cc(-c2ccccc2)n1-c1ccccc1 [SMR000196363] | 3 µM | 
O=[N+]([O-])c1c(NCCCO)cc(Sc2nc3ccccc3s2)c2nonc12 [MLS000520994] | 0.26 µM | 
CCN(CC)c1ccc(NC(=O)c2ccccc2F)cc1S(=O)(=O)Nc1ccccc1OC [SMR000241522] |  | 25.8 µM
COc1ccccc1NC1=C(NC(C)=O)C(=O)c2ccccc2C1=O [N-[3-(2-methoxyanilino)-1,4-dioxonaphthalen-2-yl]acetamide] | 1.84 µM | 
C=CS(=O)(=O)c1sc(Cl)c(N2CCOCC2)c1[N+](=O)[O-] [4-(2-chloranyl-5-ethenylsulfonyl-4-nitro-thiophen-3-yl)morpholine] | 3.57 µM | 
Cc1cc(-c2cc(-c3ccc(Cl)cc3)nc(N)c2C#N)co1 [2-azanyl-6-(4-chlorophenyl)-4-(5-methylfuran-3-yl)pyridine-3-carbonitrile] | 4.92 µM | 
CC(=O)Nc1ccc(-n2cc(-c3ccccc3)[nH]c2=S)cc1 [MLS001001946] | 2.05 µM | 
Cc1cc2nn(-c3cccc4ccccc34)nc2cc1N [SMR000076237] | 1.51 µM | 
Clc1nc(NCc2cccnc2)nc(N2CCOCC2)n1 [MLS000121154] |  | 20 µM
COc1ccccc1-n1c(-c2ccccc2)c[nH]c1=S [MLS001007615] | 1.23 µM | 
CCN1C(=O)/C(=C\C=C2/C=CC=CN2CC)SC1=S [SMR000225150] | 2.32 µM | 
CCN(CC)c1ccc(NC(=O)c2ccccc2Br)cc1S(=O)(=O)Nc1ccccc1OC |  | 10.7 µM
O=c1[nH]c(O)c(Cc2ccc(-c3cc(Cl)ccc3[N+](=O)[O-])o2)c(=O)[nH]1 | 0.81 µM | 
Cc1ccc(-c2cc(-c3ccc(F)cc3)c(C#N)c(N)n2)o1 |  | 20 µM
COc1cc(/N=C2\SSNC2Cl)c(OC)cc1Cl (configuration not stated) [4-chloro-N-(4-chloro-2,5-dimethoxyphenyl)-5-dithiazolidinimine] | 5.78 µM | 
CNC(CC(=O)c1ccc([N+](=O)[O-])cc1)C(Cl)(Cl)Cl (configuration not stated) [4,4,4-Trichloro-3-methylamino-1-(4-nitro-phenyl)-butan-1-one] | 3.97 µM | 
CN(CCO)c1cc(Sc2nc3ccccc3s2)c2nonc2c1[N+](=O)[O-] [MLS000520995] | 0.72 µM | 
O=C1C(Cl)=C(N2CCN(c3ccccc3[N+](=O)[O-])CC2)C(=O)c2ccccc21 | 2.68 µM | 
O=C1C(=Cc2ccco2)NC(=S)N1c1ccccc1 [(5E)-5-(furan-2-ylmethylidene)-3-phenyl-2-sulfanylideneimidazolidin-4-one] |  | 17.4 µM
COc1ccc(CCNC(=O)c2ccc3nc(-c4ccco4)c(-c4ccco4)nc3c2)cc1OC [N-[2-(3,4-dimethoxyphenyl)ethyl]-2,3-di-2-furylquinoxaline-6-carboxamide] |  | 15.4 µM
